Results published in US20110288086A1, “POLYCYCLIC QUINAZOLINES, PREPARATION THEREOF, AND USE THEREOF” (priority 2010, published 2011).
≈ marks a conversion by molar mass, not a printed value.

What was measured:
aurora kinase B = target: T1, aurora kinase B (Homo sapiens, UniProt Q96GD4); assay: Aurora kinase B inhibition in vitro (Invitrogen aurora kinase screening kit PV3174); format: biochemical
T1 construct: purchased Invitrogen PV3174

[1] = tested on: Hep3B2.1-7 human hepatoma carcinoma cells; assay: Tumor cell inhibition ratio, CCK-8 kit, Hep3B; details: read-out: Antiproliferative effect (inhibition ratio) Hep3B
Description: (§3) The inhibitory activities of the compounds on tumor cells in vitro

[2] = tested on: PANC-1 human pancreatic cancer cells; assay: Tumor cell IC50, CCK-8 kit, PANC-1; format: cell-based; details: PANC-1 cells
Excerpt: (§1) The inhibitory activities of the compounds on tumor cells (IC50) in vitro
(§2) The IC50 (IC50, unit: μg/ml) values of the compounds on Hut78 T-Lymphocytic Leukemia cells, Jurkat E6-1 human T-cell lymphoma, PANC-1 human pancreatic cancer cells, A549 human lung cancer cells, K562 human chronicity marrow leukemic cells, Hep3B2. 1-7 human hepatoma carcinoma cells, MDA-MB-435s human breast carcinoma cells, Colo320 human rectal cancer cells, PC-3 human carcinoma of prostate, and HepG2 human hepatoma carcinoma cells were determined using a CCK-8 kit. Erlotinib hydrochloride was used as the positive control drug.

Acute Toxicity Study = details: in vivo; preliminary screening, Bliss statistical method
Description: The acute toxicity experiments were carried out according to the methods disclosed in the book of Modern Pharmacological Methods, edited chiefly by Zhang Jun-Tian.

EGFR tyrosine kinase = EGFR tyrosine kinase (Homo sapiens, UniProt P00533); assay: EGFR tyrosine kinase inhibition in vitro (Invitrogen EGFR inhibitor screening kit PV3193)
Sequence of EGFR tyrosine kinase (P00533 25-1210): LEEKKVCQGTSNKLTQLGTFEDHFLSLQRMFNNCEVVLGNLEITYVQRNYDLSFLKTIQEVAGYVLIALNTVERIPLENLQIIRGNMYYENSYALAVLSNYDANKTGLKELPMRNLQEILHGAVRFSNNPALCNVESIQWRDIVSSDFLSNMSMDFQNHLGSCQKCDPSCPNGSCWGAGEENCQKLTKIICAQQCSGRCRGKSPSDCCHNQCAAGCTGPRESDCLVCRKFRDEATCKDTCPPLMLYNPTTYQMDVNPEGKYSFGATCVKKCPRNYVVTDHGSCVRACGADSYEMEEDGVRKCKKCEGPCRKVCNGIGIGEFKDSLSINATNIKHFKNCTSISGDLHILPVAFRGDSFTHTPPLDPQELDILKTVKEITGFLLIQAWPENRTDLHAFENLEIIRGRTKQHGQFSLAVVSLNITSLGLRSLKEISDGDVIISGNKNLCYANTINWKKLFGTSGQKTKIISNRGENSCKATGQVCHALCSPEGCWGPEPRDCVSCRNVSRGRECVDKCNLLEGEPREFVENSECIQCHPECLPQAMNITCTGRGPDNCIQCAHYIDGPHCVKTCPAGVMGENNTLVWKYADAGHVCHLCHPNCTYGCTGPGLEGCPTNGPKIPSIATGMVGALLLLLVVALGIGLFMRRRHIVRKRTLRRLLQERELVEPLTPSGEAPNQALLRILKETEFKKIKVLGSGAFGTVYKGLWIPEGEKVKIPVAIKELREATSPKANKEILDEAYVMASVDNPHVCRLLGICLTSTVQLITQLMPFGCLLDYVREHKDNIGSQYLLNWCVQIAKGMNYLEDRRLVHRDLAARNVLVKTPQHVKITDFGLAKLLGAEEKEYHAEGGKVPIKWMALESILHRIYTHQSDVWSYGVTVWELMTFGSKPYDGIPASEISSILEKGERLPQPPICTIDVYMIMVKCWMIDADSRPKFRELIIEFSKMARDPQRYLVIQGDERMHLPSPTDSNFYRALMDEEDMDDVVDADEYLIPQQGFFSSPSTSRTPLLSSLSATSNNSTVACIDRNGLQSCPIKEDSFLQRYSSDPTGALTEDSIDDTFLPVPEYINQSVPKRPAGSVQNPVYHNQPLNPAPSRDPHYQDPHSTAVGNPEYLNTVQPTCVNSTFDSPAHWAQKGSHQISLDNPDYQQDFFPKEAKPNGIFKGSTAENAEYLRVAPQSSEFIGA
Description: The inhibitory activities of EGFR tyrosine kinase in vitro
Erlotinib hydrochloride was used as a positive control drug.

[3] = tested on: Jurkat E6-1 human T-cell lymphoma; assay: Tumor cell IC50, CCK-8 kit, Jurkat E6-1; format: cell-based; details: E6-1 cells
Excerpt: as §1, §2

[4] = tested on: K562 human chronicity marrow leukemic cells; assay: Tumor cell inhibition ratio, CCK-8 kit, K562; details: K562, read-out: Antiproliferative effect (inhibition ratio) K562
Description: as §3

[5] = tested on: Colo320 human rectal cancer cells; assay: Tumor cell IC50, CCK-8 kit, Colo320; format: cell-based; details: COLO 320
Excerpt: as §1, §2

[6] = tested on: MDA-MB-435s human breast carcinoma cells; assay: Tumor cell IC50, CCK-8 kit, MDA-MB-435s; format: cell-based; details: 435s cells
Excerpt: as §1, §2

[7] = tested on: Hep3B2. 1-7 human hepatoma carcinoma cells; assay: Tumor cell IC50, CCK-8 kit, Hep3B; format: cell-based
Excerpt: as §1, §2

[8] = tested on: Jurkat E6-1 human T-cell lymphoma; assay: Tumor cell inhibition ratio, CCK-8 kit, Jurkat E6-1; details: Jurkat E6.1, read-out: Antiproliferative effect (inhibition ratio) E6-1
Description: as §3

[9] = tested on: PC-3 human carcinoma of prostate; assay: Tumor cell inhibition ratio, CCK-8 kit, PC-3; details: read-out: Antiproliferative effect (inhibition ratio) PC-3
Description: as §3

[10] = tested on: MDA-MB-435s human breast carcinoma cells; assay: Tumor cell inhibition ratio, CCK-8 kit, MDA-MB-435s; details: read-out: Antiproliferative effect (inhibition ratio) 435s
Description: as §3

[11] = tested on: Hut78 T-Lymphocytic Leukemia cells; assay: Tumor cell IC50, CCK-8 kit, Hut78; format: cell-based; details: Homo sapiens, Hut-78 cells
Excerpt: as §1, §2

[12] = tested on: PANC-1 human pancreatic cancer cells; assay: Tumor cell inhibition ratio, CCK-8 kit, PANC-1; details: PANC-1, read-out: Antiproliferative effect (inhibition ratio) PANC-1
Description: as §3

[13] = tested on: Hut78 T-Lymphocytic Leukemia cells; assay: Tumor cell inhibition ratio, CCK-8 kit, Hut78; details: Homo sapiens, HuT78, read-out: Antiproliferative effect (inhibition ratio) Hut-78
Description: as §3

[14] = tested on: A549 human lung cancer cells; assay: Tumor cell inhibition ratio, CCK-8 kit, A549; details: A549, read-out: Antiproliferative effect (inhibition ratio) A549
Description: as §3

[15] = tested on: PC-3 human carcinoma of prostate; assay: Tumor cell IC50, CCK-8 kit, PC-3; format: cell-based; details: PC-3 cells
Excerpt: as §1, §2

[16] = tested on: A549 human lung cancer cells; assay: Tumor cell IC50, CCK-8 kit, A549; format: cell-based
Excerpt: as §1, §2

[17] = tested on: K562 human chronicity marrow leukemic cells; assay: Tumor cell IC50, CCK-8 kit, K562; format: cell-based
Excerpt: as §1, §2

[18] = tested on: Colo320 human rectal cancer cells; assay: Tumor cell inhibition ratio, CCK-8 kit, Colo320; details: COLO 320, read-out: Antiproliferative effect (inhibition ratio) Colo320
Description: as §3

T1 sequence (Q96GD4 whole entry): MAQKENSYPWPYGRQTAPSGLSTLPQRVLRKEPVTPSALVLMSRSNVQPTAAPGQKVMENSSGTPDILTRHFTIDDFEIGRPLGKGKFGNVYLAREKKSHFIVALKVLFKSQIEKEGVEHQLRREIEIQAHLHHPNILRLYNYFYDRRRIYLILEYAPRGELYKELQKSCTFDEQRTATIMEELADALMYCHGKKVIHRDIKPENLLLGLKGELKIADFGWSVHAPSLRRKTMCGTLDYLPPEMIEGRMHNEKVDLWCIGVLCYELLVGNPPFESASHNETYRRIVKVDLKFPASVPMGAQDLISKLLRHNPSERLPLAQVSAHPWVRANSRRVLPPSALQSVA

| Structure (SMILES) | The inhibition ratio of the compound on Aurora B(%) (aurora kinase B; 40 μM) | The inhibition ratio of the compound on Aurora B(%) (aurora kinase B; 200 μM) | inhibition at 10 µM [1] | inhibition at 100 µM [1] | IC50 [2] | The inhibition ratio of the compound on EGFR(%) (EGFR tyrosine kinase; 40 μM) | The inhibition ratio of the compound on EGFR(%) (EGFR tyrosine kinase; 200 μM) | IC50 [3] | inhibition at 10 µM [4] | inhibition at 100 µM [4] | IC50 [5] | IC50 [6] | IC50 [7] | inhibition at 10 µM [8] | inhibition at 100 µM [8] | inhibition at 10 µM [9] | inhibition at 100 µM [9] | inhibition at 10 µM [10] | inhibition at 100 µM [10] | IC50 [11] | further results |
| --- | --- | --- | --- | --- | --- | --- | --- | --- | --- | --- | --- | --- | --- | --- | --- | --- | --- | --- | --- | --- | --- |
| COCCOc1cc2c(cc1OCCOC)C1=Nc3cc(COS(C)(=O)=O)cc([N+](=O)[O-])c3CN1C=N2.Cl [Compound V-20, mesylate-{9-nitro-2,3-bis(2-methoxyethoxy)-8H-quinazolino[4,3-b]quinazoline-11-methanol}ester hydrochloride] | 58.9% | 96.4% | 60.7% | 92.2% | 3.72 µg/mL | 59.9% | 98.4% | 0.05 µg/mL | 40.7% | 97.4% | 13.1 µg/mL | 16.8 µg/mL | 71.4 µg/mL | 57.9% | 95.6% | 46.8% | 75.2% | 65.7% | 93.9% | 55.3 µg/mL | LD50 (Acute Toxicity Study): 750 mg/kg; inhibition at 10 µM [12]: 54.8%; inhibition at 100 µM [12]: 88.2%; inhibition at 10 µM [13]: 52.3%; inhibition at 100 µM [13]: 82.1%; inhibition at 10 µM [14]: 55%; inhibition at 100 µM [14]: 90.7%; IC50 [15]: 22.7 µg/mL; IC50 [16]: 12.1 µg/mL; IC50 [17]: 10.1 µg/mL; inhibition at 10 µM [18]: 66.9%; inhibition at 100 µM [18]: 92.3% |
| COCCOc1cc2c(cc1OCCOC)C1=Nc3cc(Cl)ccc3C(C)N1C=N2.O=C(O)CC(O)C(=O)O (stereo not shown) [Compound V-22, 11-chloro-8-methyl-2,3-bis(2-methoxyethoxy)-8H-quinazolino[4,3-b]quinazoline malate] | 57.2% | 95.6% | 62.3% | 90.7% | 84.3 µg/mL | 63.2% | 95.6% | 13.3 µg/mL | 23.1% | 88.8% | 4.67 µg/mL | 6.18 µg/mL | 14.4 µg/mL | 67% | 98% | 64% | 97% | 63.4% | 94.1% | 11.4 µg/mL | LD50 (Acute Toxicity Study): 1340 mg/kg; inhibition at 10 µM [12]: 60.9%; inhibition at 100 µM [12]: 95.4%; inhibition at 10 µM [13]: 54.1%; inhibition at 100 µM [13]: 94.6%; inhibition at 10 µM [14]: 54.6%; inhibition at 100 µM [14]: 96.2%; IC50 [15]: 7.69 µg/mL; IC50 [16]: 9.87 µg/mL; IC50 [17]: 19.6 µg/mL; inhibition at 10 µM [18]: 43.8%; inhibition at 100 µM [18]: 99% |
| CS(=O)(=O)CCNCc1ccc(-c2ccc3c(c2)C2=Nc4ccc(OCc5cccc(F)c5)c(Cl)c4CN2C=N3)o1 [Compound V-33, N-((5-(9-chloro-10-(3-fluorobenzyloxy)-8H-quinazolino[4,3-b]quinazoline-2-yl)furan-2-yl)methyl)-2-(methylsulfonyl)ethylamine] | 54.6% | 93.7% | 51.3% | 86.5% | 1.97 µg/mL (≈ 3.32 µM) | 64.3% | 97.9% | 15.4 µg/mL (≈ 25.9 µM) | 40.5% | 86% | 7.83 µg/mL (≈ 13.2 µM) | 10.3 µg/mL (≈ 17.4 µM) | 22.7 µg/mL (≈ 38.3 µM) | 41.6% | 90.8% | 16.5% | 78.2% | 62.7% | 99.5% | 13.4 µg/mL (≈ 22.6 µM) | LD50 (Acute Toxicity Study): 2840 mg/kg; inhibition at 10 µM [12]: 50.3%; inhibition at 100 µM [12]: 88%; inhibition at 10 µM [13]: 61%; inhibition at 100 µM [13]: 92.8%; inhibition at 10 µM [14]: 48.1%; inhibition at 100 µM [14]: 86.1%; IC50 [15]: 40.7 µg/mL (≈ 68.6 µM); IC50 [16]: 0.05 µg/mL (≈ 0.0843 µM); IC50 [17]: 62.6 µg/mL (≈ 105 µM); inhibition at 10 µM [18]: 61.6%; inhibition at 100 µM [18]: 96.3% |
| Br.COCCOc1cc2c(cc1OCCOC)C1=Nc3cccc(N)c3CN1C=N2 [Compound V-6, 9-amino-2,3-bis(2-methoxyethoxy)-8H-quinazolino[4,3-b]quinazoline hydrobromide trihydrate] | 48.5% | 93.8% | 51.3% | 84.7% | 16.8 µg/mL | 55.2% | 93.8% | 30.5 µg/mL | 64.1% | 82.8% | 29.8 µg/mL | 33.5 µg/mL | 15.6 µg/mL | 61.1% | 95.3% | 53.4% | 84.4% | 50.4% | 87% | 58.8 µg/mL | inhibition at 10 µM [12]: 64.2%; inhibition at 100 µM [12]: 98.6%; inhibition at 10 µM [13]: 69%; inhibition at 100 µM [13]: 91.9%; inhibition at 10 µM [14]: 63%; inhibition at 100 µM [14]: 97.3%; IC50 [15]: 33 µg/mL; IC50 [16]: 3.68 µg/mL; IC50 [17]: 46.4 µg/mL; inhibition at 10 µM [18]: 73.5%; inhibition at 100 µM [18]: 99.2% |
| COCCOc1cc2c(cc1OCCOC)C1=Nc3ccc(F)c(Cl)c3CN1C=N2 [Compound V-13, 9-chloro-10-fluoro-2,3-bis(2-methoxyethoxy)-8H-quinazolino[4,3-b]quinazoline] | 55.2% | 95.8% | 64.7% | 102% | 14.9 µg/mL (≈ 34.3 µM) | 45.7% | 88.9% | 3.89 µg/mL (≈ 8.97 µM) | 66.2% | 98.5% | 9.88 µg/mL (≈ 22.8 µM) | 31.4 µg/mL (≈ 72.4 µM) | 0.32 µg/mL (≈ 0.738 µM) | 52.6% | 98% | 61.4% | 87.7% | 26.8% | 67.9% | 0.62 µg/mL (≈ 1.43 µM) | inhibition at 10 µM [12]: 45.9%; inhibition at 100 µM [12]: 87.2%; inhibition at 10 µM [13]: 66.2%; inhibition at 100 µM [13]: 101%; inhibition at 10 µM [14]: 43%; inhibition at 100 µM [14]: 91.1%; IC50 [15]: 9.78 µg/mL (≈ 22.5 µM); IC50 [16]: 10.7 µg/mL (≈ 24.7 µM); IC50 [17]: 11 µg/mL (≈ 25.3 µM); inhibition at 10 µM [18]: 59.7% |
